PubChem BioAssay (NCI)
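Where inhibition never reached the appropriate level, the endpoint shown equals the highest concentration tested. Otherwise, values were interpolated linearly from a five-concentration, 48-hour dose response in 96-well plates. Definition used: TGI = concentration required for complete inhibition of growth.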

Assays:
Assay in all cases: growth of human tumour cells (NCI), 48 h
[1] = tested on: SNB-78 CNS
[2] = tested on: SK-MEL-5 melanoma
[3] = tested on: HL-60(TB) leukemia
[4] = tested on: COLO 205 colon
[5] = tested on: A498 renal
[6] = tested on: OVCAR-5 ovarian
[7] = tested on: KM20L2 colon
[8] = tested on: HOP-62 NSCLC
[9] = tested on: UACC-62 melanoma
[10] = tested on: ACHN renal
[11] = tested on: RXF 393 renal
[12] = tested on: MALME-3M melanoma
[13] = tested on: DMS 273 small cell lung
[14] = tested on: XF 498 CNS
[15] = tested on: KM12 colon
[16] = tested on: UACC-257 melanoma
[17] = tested on: SF-268 CNS
[18] = tested on: LXFL 529 NSCLC
[19] = tested on: EKVX NSCLC
[20] = tested on: M19-MEL melanoma
[21] = tested on: M14 melanoma
[22] = tested on: HOP-92 NSCLC
[23] = tested on: DMS 114 small cell lung
[24] = tested on: RPMI-8226 leukemia
[25] = tested on: LOX IMVI melanoma
[26] = tested on: SNB-19 CNS
[27] = tested on: DLD-1 colon
[28] = tested on: K-562 leukemia
[29] = tested on: SK-MEL-2 melanoma
[30] = tested on: SF-539 CNS
[31] = tested on: OVCAR-4 ovarian
[32] = tested on: NCI-H226 lung
[33] = tested on: CAKI-1 renal
[34] = tested on: MOLT-4 leukemia
[35] = tested on: SW-620 colon
[36] = tested on: SNB-75 CNS
[37] = tested on: CCRF-CEM leukemia
[38] = tested on: TK-10 renal
[39] = tested on: NCI-H522 lung
[40] = tested on: SR leukemia
[41] = tested on: SN12C renal
[42] = tested on: OVCAR-3 ovarian
[43] = tested on: 786-0 renal
[44] = tested on: U251 CNS
[45] = tested on: HOP-18 NSCLC
[46] = tested on: UO-31 renal
[47] = tested on: HT29 colon
[48] = tested on: NCI-H460 lung
[49] = tested on: SF-295 CNS
[50] = tested on: OVCAR-8 ovarian
[51] = tested on: SK-MEL-28 melanoma
[52] = tested on: IGROV1 ovarian
[53] = tested on: HCT-15 colon
[54] = tested on: SK-OV-3 ovarian
[55] = tested on: NCI-H23 lung
[56] = tested on: A549 NSCLC
[57] = tested on: HCT-116 colon

SMILES: O=C1NC2OC(CO)C(O)C(O1)C2O (configuration not stated)
- TGI [1]: > 100 µM
- TGI [2]: > 100 µM
- TGI [3]: > 100 µM
- TGI [4]: > 100 µM
- TGI [5]: > 100 µM
- TGI [6]: > 100 µM
- TGI [7]: > 100 µM
- TGI [8]: > 100 µM
- TGI [9]: > 100 µM
- TGI [10]: > 100 µM
- TGI [11]: > 100 µM
- TGI [12]: > 100 µM
- TGI [13]: > 100 µM
- TGI [14]: > 100 µM
- TGI [15]: > 100 µM
- TGI [16]: > 100 µM
- TGI [17]: > 100 µM
- TGI [18]: > 100 µM
- TGI [19]: > 100 µM
- TGI [20]: > 100 µM
- TGI [21]: > 100 µM
- TGI [22]: > 100 µM
- TGI [23]: > 100 µM
- TGI [24]: > 100 µM
- TGI [25]: > 100 µM
- TGI [26]: > 100 µM
- TGI [27]: > 100 µM
- TGI [28]: > 100 µM
- TGI [29]: > 100 µM
- TGI [30]: > 100 µM
- TGI [31]: > 100 µM
- TGI [32]: > 100 µM
- TGI [33]: > 100 µM
- TGI [34]: > 100 µM
- TGI [35]: > 100 µM
- TGI [36]: > 100 µM
- TGI [37]: > 100 µM
- TGI [38]: > 100 µM
- TGI [39]: > 100 µM
- TGI [40]: > 100 µM
- TGI [41]: > 100 µM
- TGI [42]: > 100 µM
- TGI [43]: > 100 µM
- TGI [44]: > 100 µM
- TGI [45]: > 100 µM
- TGI [46]: > 100 µM
- TGI [47]: > 100 µM
- TGI [48]: > 100 µM
- TGI [49]: > 100 µM
- TGI [50]: > 100 µM
- TGI [51]: > 100 µM
- TGI [52]: > 100 µM
- TGI [53]: > 100 µM
- TGI [54]: > 100 µM
- TGI [55]: > 100 µM

SMILES: O=C1CCC2(c3ccc(F)cc3)Nc3cc(Cl)ccc3N12 (configuration not stated)
- TGI [1]: > 100 µM
- TGI [2]: > 100 µM
- TGI [3]: > 100 µM
- TGI [4]: > 100 µM
- TGI [5]: > 100 µM
- TGI [7]: > 100 µM
- TGI [8]: > 100 µM
- TGI [9]: > 100 µM
- TGI [10]: > 100 µM
- TGI [11]: > 100 µM
- TGI [12]: > 100 µM
- TGI [13]: > 100 µM
- TGI [14]: 86.2 µM
- TGI [15]: > 100 µM
- TGI [16]: > 100 µM
- TGI [17]: > 100 µM
- TGI [18]: > 100 µM
- TGI [19]: > 100 µM
- TGI [20]: > 100 µM
- TGI [21]: > 100 µM
- TGI [23]: > 100 µM
- TGI [24]: > 100 µM
- TGI [25]: > 100 µM
- TGI [26]: > 100 µM
- TGI [27]: > 100 µM
- TGI [28]: > 100 µM
- TGI [29]: > 100 µM
- TGI [56]: > 100 µM
- TGI [30]: > 100 µM
- TGI [31]: > 100 µM
- TGI [32]: > 100 µM
- TGI [34]: > 100 µM
- TGI [35]: > 100 µM
- TGI [36]: > 100 µM
- TGI [37]: > 100 µM
- TGI [57]: > 100 µM
- TGI [39]: > 100 µM
- TGI [40]: > 100 µM
- TGI [41]: > 100 µM
- TGI [42]: > 100 µM
- TGI [43]: > 100 µM
- TGI [44]: > 100 µM
- TGI [45]: > 100 µM
- TGI [46]: > 100 µM
- TGI [47]: > 100 µM
- TGI [49]: > 100 µM
- TGI [50]: > 100 µM
- TGI [51]: > 100 µM
- TGI [52]: > 100 µM
- TGI [53]: > 100 µM
- TGI [54]: > 100 µM
- TGI [55]: > 100 µM
